Source: US9889125B2 (TAKEDA PHARMACEUTICALS U.S.A., INC., priority 2011, dated 2018)
Structures can show the parent of a compound that is named as a salt.

Assays:
[1] = test system: platelet function (Vasodilator-stimulated phosphoprotein, VASP); assay: Platelet function test: Vasodilator-stimulated phosphoprotein (VASP), platelet reactivity index (PRI); format: in vivo, human; details: for Difference in the LS-Means of PRI (with PPI vs without PPI): 9 days, 24 hours post Day 9 dose
Text: (§1) ANOVA models with sequence, subject within sequence, period and regimen were fitted to the pharmacodynamic parameters.

[2] = test system: platelet aggregation with ADP; assay: Platelet function test: Aggregometry with adenosine diphosphate (ADP), maximum platelet aggregation (MPA); format: in vivo, human; details: for MPA with 5 μM ADP, Mean (SD) / MPA with 20 μM ADP, Mean (SD): 9 days, 24 Hours Post Day 9 Dose
Text: as §1

[3] = test system: P2Y12 platelet reactivity; assay: Platelet function test: VerifyNow, P2Y12 platelet reactivity unit (PRU); format: in vivo, human; details: 9 days, 24 Hours Post Day 9 Dose
Text: as §1

CYP2C19 = target: T1, CYP2C19 (Homo sapiens, UniProt P33261); assay: CYP2C19 inhibition by PPIs
T1 construct: The subject was a CYP2C19 extensive metabolizer (wt/wt); from tissue; host or cells: Liver of healthy study subjects (in vivo), CYP2C19 wt/wt genotype
T1 sequence (P33261 whole entry): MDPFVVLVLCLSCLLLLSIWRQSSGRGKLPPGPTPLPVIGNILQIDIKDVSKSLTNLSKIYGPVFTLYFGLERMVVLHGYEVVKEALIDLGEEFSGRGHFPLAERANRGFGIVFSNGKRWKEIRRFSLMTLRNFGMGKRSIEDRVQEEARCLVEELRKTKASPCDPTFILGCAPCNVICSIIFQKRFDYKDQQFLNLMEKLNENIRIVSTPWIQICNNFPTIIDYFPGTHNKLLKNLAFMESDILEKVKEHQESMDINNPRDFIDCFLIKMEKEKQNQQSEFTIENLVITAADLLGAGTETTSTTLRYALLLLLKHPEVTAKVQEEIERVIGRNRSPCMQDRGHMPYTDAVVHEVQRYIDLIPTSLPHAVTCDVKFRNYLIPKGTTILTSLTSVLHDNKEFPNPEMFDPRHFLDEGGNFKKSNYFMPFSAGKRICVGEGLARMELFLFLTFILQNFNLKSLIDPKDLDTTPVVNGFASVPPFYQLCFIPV

[4] = PPI 80 mg with clopidogrel 300-mg loading dose and 75 mg/day maintenance dose; healthy subjects; cited from earlier work
[5] = PPI group esomeprazole 40 mg: clopidogrel 75 mg QD alone or clopidogrel + PPI
[6] = PPI group omeprazole 80 mg: clopidogrel 75 mg QD alone or clopidogrel + PPI
[7] = PPI group dexlansoprazole 60 mg: clopidogrel 75 mg QD alone or clopidogrel + PPI
[8] = PPI group lansoprazole 30 mg: clopidogrel 75 mg QD alone or clopidogrel + PPI
[9] = clopidogrel with lansoprazole 30 mg vs clopidogrel alone
[10] = clopidogrel with dexlansoprazole 60 mg vs clopidogrel alone

Row | SMILES | MPA with 5 μM ADP, Mean (SD) [2, 5] | MPA with 20 μM ADP, Mean (SD) [2, 5] | PRU, Mean (SD) [3, 5] | CYP2C19 inhibition (strength of inhibitor) (CYP2C19) | MPA with 5 μM ADP, Mean (SD) [2, 6] | MPA with 20 μM ADP, Mean (SD) [2, 6] | PRU, Mean (SD) [3, 6] | MPA with 5 μM ADP, Mean (SD) [2, 7] | MPA with 20 μM ADP, Mean (SD) [2, 7] | MPA with 5 μM ADP, Mean (SD) [2, 8] | MPA with 20 μM ADP, Mean (SD) [2, 8] | PRU, Mean (SD) [3, 7] | PRU, Mean (SD) [3, 8] | also measured
1 | COc1ccc2nc([S@@+]([O-])Cc3ncc(C)c(OC)c3C)[nH]c2c1 [Esomeprazole] | 38.2 (17.77) % | 47.9 (15.77) % | 177.6 (55.37) % | potent CYP2C19 inhibitors |  |  |  |  |  |  |  |  |  | Difference in the LS-Means of PRI (with PPI vs without PPI) ([1]; clopidogrel 75 mg QD with vs without esomeprazole 40 mg QD): 11.4437; effect on clopidogrel PD in terms of PRI (90% CI of LS-Mean difference against 15% boundary) ([1]; clopidogrel with esomeprazole 40 mg vs clopidogrel alone): very similar to omeprazole 80 mg
2 | COc1ccc2[nH]c([S+]([O-])Cc3ncc(C)c(OC)c3C)nc2c1 (stereo not drawn) [Omeprazole] |  |  |  | potent CYP2C19 inhibitors | 42.5 (14.74) % | 53.5 (13.75) % | 201.5 (59.65) % |  |  |  |  |  |  | Difference in the LS-Means of PRI (with PPI vs without PPI) ([1]; clopidogrel 75 mg QD with vs without omeprazole 80 mg QD): 11.0407; metabolic DDI with clopidogrel [4]: a metabolic DDI was found to exist
3 | COC(=O)[C@H](c1ccccc1Cl)N1CCc2sccc2C1 [Clopidogrel, methyl (+)-(S)-α-(2-chlorophenyl)-6,7-dihydrothieno[3,2-c]pyridine-5 (4H)-acetate sulfate (1:1)] | 29.3 (10.41) % | 39.3 (13.22) % | 121.1 (50.64) % |  | 34.2 (12.32) % | 43.5 (14.00) % | 133.0 (67.62) % | 34.6 (14.23) % | 43.1 (13.24) % | 28.1 (6.76) % | 36.7 (9.11) % | 124.2 (79.10) % | 114.9 (56.44) % | 
4 | Cc1c(OCC(F)(F)F)ccnc1C[S+]([O-])c1nc2ccccc2[nH]1 (stereo not drawn) [Lansoprazole] |  |  |  | weak CYP2C19 inhibitors |  |  |  |  |  | 30.8 (9.35) % | 41.6 (12.65) % |  | 131.8 (71.27) % | Difference in the LS-Means of PRI (with PPI vs without PPI) ([1]; clopidogrel 75 mg QD with vs without lansoprazole 30 mg QD): 4.1016; effect on clopidogrel PD in terms of PRI (90% CI of LS-Mean difference against 15% boundary) [1, 9]: equivalence in PD was demonstrated; increase in mean PRI [1, 9]: 4.1%
5 | Cc1c(OCC(F)(F)F)ccnc1C[S@@+]([O-])c1nc2ccccc2[nH]1 [Dexlansoprazole] |  |  |  | weak CYP2C19 inhibitors |  |  |  | 36.2 (16.87) % | 46.3 (16.93) % |  |  | 146.7 (84.45) % |  | Difference in the LS-Means of PRI (with PPI vs without PPI) ([1]; clopidogrel 75 mg QD with vs without dexlansoprazole 60 mg QD): 2.0474; effect on clopidogrel PD in terms of PRI (90% CI of LS-Mean difference against 15% boundary) [1, 10]: equivalence in PD was demonstrated; increase in mean PRI [1, 10]: 2.0%; difference in MPA compared with clopidogrel alone, statistical significance ([2]; clopidogrel with dexlansoprazole 60 mg, either MPA (5 and 20 μM ADP)): not statistically significant
